Measurements from US20130072505A1, “6,9-Disubstituted Purine Derivatives and Their Use for Treating Skin” (priority 2006, published 2013).

System: normal, human-derived epidermal keratinocytes (NHEK)
Assay: Epiderm MTT Viablity Assay
Type: cell-based
Protocol: Using MatTek Corporation's EpiDerm™ System (consisting of normal, human-derived epidermal keratinocytes (NHEK) which have been cultured to form a multilayered, highly differentiated model of the human epidermis), it was determined that 6-furfurylamino-9-(2-tetrahydropyranyl)purine would be expected to be classified as non-irritating.

c1coc(CNc2ncnc3c2ncn3C2CCCCO2)c1 (stereo not shown) [6-furfurylamino-9-(2-tetrahydropyranyl)purine]
irritation classification, EpiDerm System: non-irritating
